Results reported in ChEMBL document CHEMBL1201862, “PubChem BioAssay data set” (2004).
Activity calls are given as the source filed them.

How the values were obtained:
[1] = Dd2 parasite growth inhibition in erythrocytes – SYBR Green, dry powder samples, set 9, dose response (AID 1159568); assay type: functional, cell-based
[2] = target: T1, Protein skinhead-1 (Caenorhabditis elegans, UniProt P34707); assay type: functional
T1 sequence (P34707 whole entry): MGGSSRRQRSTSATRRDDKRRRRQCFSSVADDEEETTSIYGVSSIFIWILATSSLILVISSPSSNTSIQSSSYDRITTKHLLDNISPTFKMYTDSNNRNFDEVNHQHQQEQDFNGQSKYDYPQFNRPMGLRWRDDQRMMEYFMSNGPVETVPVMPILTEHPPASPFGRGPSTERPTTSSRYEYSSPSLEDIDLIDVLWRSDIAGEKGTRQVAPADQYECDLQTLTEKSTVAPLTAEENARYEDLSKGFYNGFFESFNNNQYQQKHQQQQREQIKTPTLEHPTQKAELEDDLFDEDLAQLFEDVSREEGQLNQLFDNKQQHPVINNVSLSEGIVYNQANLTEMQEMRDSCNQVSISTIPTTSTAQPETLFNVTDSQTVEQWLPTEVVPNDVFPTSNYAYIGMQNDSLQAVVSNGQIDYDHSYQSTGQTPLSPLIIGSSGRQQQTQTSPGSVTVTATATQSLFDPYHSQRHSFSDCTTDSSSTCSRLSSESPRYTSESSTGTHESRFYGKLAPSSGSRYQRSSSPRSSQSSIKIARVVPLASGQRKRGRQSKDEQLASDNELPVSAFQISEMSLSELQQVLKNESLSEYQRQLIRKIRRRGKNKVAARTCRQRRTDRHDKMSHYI

[3] = target: T2, Oxysterols receptor LXR-beta (Homo sapiens, UniProt P55055); assay type: functional, cell-based;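 further: agonist activity at LXR measured by a cell-based luminescence readout across a dose range, run as a counterscreen for daf-12 agonists; HEK293 cells with Gal4-LXR fusion and GAL4-driven luciferase reporter; potency for activation of Gal4-LXR reporter so compounds are agonists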
T2 sequence (P55055 whole entry): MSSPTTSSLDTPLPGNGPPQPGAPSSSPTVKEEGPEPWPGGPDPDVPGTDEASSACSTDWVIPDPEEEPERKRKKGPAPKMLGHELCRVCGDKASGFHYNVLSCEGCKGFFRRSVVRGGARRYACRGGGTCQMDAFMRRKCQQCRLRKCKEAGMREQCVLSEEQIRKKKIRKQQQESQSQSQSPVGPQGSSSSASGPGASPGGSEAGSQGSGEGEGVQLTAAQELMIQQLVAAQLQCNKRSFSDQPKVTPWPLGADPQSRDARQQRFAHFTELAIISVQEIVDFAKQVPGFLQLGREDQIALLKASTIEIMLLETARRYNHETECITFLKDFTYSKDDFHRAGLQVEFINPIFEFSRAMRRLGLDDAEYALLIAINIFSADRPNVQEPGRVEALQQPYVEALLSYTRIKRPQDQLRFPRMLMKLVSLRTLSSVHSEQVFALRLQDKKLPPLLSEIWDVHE

[4] = target: Nonstructural protein 1 (Influenza A virus, UniProt Q194T2); assay type: functional, Influenza A virus (A/California/07/2009(H1N1))
Nonstructural protein 1, sequence (Q194T2 whole entry): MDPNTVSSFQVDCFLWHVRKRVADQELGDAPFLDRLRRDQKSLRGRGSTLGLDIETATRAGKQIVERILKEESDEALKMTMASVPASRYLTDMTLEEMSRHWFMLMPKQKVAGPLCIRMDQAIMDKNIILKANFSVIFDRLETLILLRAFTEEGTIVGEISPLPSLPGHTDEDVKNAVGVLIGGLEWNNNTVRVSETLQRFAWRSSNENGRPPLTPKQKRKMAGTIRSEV

[5] = target: T3, Polyadenylate-binding protein 1 (Homo sapiens, UniProt P11940); assay: MLLE binding blockers, Cy5 peptide tracer – biochemical, fluorescence polarization, Cy5-PAM2 peptide, secondary, miRNA deadenylation inhibitor project, dose response (AID 602260); assay type: functional; settings: read-out: IC50_Mean
T3 sequence (P11940 whole entry, the tested form may be a part): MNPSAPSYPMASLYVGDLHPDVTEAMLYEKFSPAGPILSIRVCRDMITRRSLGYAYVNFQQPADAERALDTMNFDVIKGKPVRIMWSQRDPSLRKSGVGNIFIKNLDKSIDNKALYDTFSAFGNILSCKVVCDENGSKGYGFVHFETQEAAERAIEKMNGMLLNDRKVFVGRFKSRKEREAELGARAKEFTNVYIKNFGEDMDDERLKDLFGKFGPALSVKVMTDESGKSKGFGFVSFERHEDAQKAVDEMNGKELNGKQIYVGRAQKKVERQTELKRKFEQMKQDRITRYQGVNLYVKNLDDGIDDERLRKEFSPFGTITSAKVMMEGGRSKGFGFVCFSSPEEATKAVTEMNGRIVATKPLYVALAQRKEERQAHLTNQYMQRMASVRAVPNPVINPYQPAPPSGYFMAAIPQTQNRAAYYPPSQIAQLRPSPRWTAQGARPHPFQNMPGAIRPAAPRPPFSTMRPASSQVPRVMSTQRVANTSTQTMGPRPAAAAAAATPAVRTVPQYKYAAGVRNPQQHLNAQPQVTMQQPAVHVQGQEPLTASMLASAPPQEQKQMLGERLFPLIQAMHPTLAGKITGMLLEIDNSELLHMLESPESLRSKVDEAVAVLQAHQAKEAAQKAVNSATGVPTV

[6] = target: T3, Polyadenylate-binding protein 1; assay: MLLE domain peptide-binding blockers, IC50 – biochemical, fluorescence polarization, FITC-PAM2 peptide, dose response (AID 602259); assay type: functional; settings: read-out: IC50_Mean
[7] = target: T4, Corticotropin-releasing factor receptor 2/Corticotropin-releasing factor-binding protein (Homo sapiens, UniProt P24387+Q13324); assay: Dose Response confirmation of uHTS hits for small molecule antagonists of the CRF-binding protein and CRF-R2 receptor complex.; assay type: functional; settings: read-out: IC50_Mean
T4 sequence (Q13324 whole entry): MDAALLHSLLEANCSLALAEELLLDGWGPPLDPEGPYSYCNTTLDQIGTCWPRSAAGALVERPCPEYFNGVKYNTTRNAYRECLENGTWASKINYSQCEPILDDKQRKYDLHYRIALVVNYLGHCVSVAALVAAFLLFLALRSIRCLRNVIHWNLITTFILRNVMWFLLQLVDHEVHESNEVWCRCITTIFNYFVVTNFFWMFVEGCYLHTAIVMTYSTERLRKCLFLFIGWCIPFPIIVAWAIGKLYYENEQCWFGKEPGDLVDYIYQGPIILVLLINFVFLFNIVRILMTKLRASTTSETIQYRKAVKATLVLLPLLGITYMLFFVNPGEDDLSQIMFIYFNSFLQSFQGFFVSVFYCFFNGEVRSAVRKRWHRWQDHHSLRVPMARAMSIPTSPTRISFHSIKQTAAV
T4 sequence (P24387 whole entry): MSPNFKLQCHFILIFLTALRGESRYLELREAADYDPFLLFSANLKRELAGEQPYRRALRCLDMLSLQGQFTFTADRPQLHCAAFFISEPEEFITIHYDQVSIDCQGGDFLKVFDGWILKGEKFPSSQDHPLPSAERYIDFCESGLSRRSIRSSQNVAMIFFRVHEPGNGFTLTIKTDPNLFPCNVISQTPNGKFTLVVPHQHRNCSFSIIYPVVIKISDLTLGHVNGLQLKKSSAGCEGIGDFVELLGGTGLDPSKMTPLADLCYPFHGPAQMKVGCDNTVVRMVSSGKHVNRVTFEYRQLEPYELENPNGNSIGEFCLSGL

[8] = target: T4, Corticotropin-releasing factor receptor 2/Corticotropin-releasing factor-binding protein; assay: activators of CRF receptor 2 with binding protein – uHTS hits, confirmation (AID 602473); assay type: functional; settings: read-out: EC50_Mean
[9] = viability loss in THP-1 monocytes – THP-1 cells, cytotoxicity control for Vif-APOBEC3G degradation inhibitor project, dose response (AID 1117359); assay type: functional; settings: THP-1
[10] = target: Mitogen-activated protein kinase 10 (Homo sapiens, UniProt P53779); assay: Dose response biochemical screening assay for inhibitors of c-Jun N-Terminal Kinase 3 (JNK3). [Related pubchem assays: 746 ]
Mitogen-activated protein kinase 10, sequence (P53779 whole entry): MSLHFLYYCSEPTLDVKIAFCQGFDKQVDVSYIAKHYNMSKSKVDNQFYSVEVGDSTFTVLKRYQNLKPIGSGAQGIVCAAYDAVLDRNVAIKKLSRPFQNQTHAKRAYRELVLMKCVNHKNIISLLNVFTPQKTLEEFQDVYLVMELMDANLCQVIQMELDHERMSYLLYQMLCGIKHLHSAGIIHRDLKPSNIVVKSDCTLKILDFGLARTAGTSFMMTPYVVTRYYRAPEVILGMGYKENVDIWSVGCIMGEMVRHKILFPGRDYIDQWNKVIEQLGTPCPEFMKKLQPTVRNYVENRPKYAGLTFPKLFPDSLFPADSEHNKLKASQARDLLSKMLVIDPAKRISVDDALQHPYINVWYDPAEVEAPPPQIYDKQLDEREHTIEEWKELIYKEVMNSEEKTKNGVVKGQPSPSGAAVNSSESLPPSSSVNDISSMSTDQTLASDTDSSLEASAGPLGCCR

In the case of `N#Cc1cccc(-c2ccc3c(c2)[C@H]2[C@H](CCN2S(=O)(=O)c2ccc(F)cc2)[C@@H](CO)N3)c1`, the AC50 [1] is reported as 8.37 µM (active).
In the case of `c1csc(Cn2nnnc2CN2CCN(c3nc4ccccc4s3)CC2)c1`, the IC50 [2] is reported as > 100 µM (inactive).
With `Cc1ccc(NC(=S)NC(=O)C2CCCC2)c(Br)c1` the EC50 [3] was > 67.5 µM (inactive).
With `CNc1cccc2c1C(=O)c1ccccc1C2=O` the IC50 [4] was 8.18 µM (active), the IC50 [5] was > 66 µM (inactive) and the IC50 [6] was 49.1 µM (inactive). For the same compound, the IC50 [2] was > 100 µM (inactive).
For `O=C(Nc1cccc(F)c1)N1CCCCN2[C@H](CO)[C@@H](c3ccc(C#Cc4cccnc4)cc3)[C@@H]2C1`, the AC50 [1] was 2.58 µM (active).
With `CN(C)CCNC(=O)C(=O)c1c(-c2ccccc2)cc2ccccn12` the IC50 [7] was > 47.1 µM (inactive), the EC50 [8] was > 53 µM (inactive) and the CC50 [9] was > 40 µM (active).
In the case of `COc1ccc(C(C)=O)cc1COC(=O)c1cc(C)oc1C`, the IC50 [10] is reported as 61.8 µM (not active).
In the case of `CN=c1ccccc(-c2ccc3cc4c(cc3n2)OCO4)c1O`, the CC50 [9] is reported as > 40 µM (active).
For `CCc1ccc2c(COC(=O)c3n[nH]c4ccccc34)cc(=O)oc2c1`, the IC50 [10] was > 93.1 µM (not active).
For `COc1ccc(Oc2cnn(-c3ccccc3)c(=O)c2Br)cc1`, the EC50 [3] was > 67.5 µM (inactive).
